Values of other authors in patent US20190083649A1, “CROSSLINKED POLYMER NANO-ASSEMBLIES AND USES THEREOF” (University of Massachusetts, priority 2017, published 2019).

## C=C(C)C(=O)OCCN(C(C)C)C(C)C [DPA, 2-(diisopropylamino)ethyl methacrylate]
  pKa of the protonated form of the amine: around 6.2
